Measured values from US4714765A, “Rhodanine derivatives and process for preparing the same” (Taiho Pharmaceutical Company, Limited, priority 1985, dated 1987).

The compounds below were run against T1, Rat Lens Aldose Reductase (Rattus norvegicus, UniProt P07943) (assay: Aldose reductase inhibitory activity (Rat Lens Aldose Reductase)). Conditions: rat lens homogenate supernatant; glyceraldehyde as substrate; decrease in NADPH at 340 nm; read-out: IC50 (concentration of the test compound at which 50% inhibition of aldose reductase is achieved).
T1 construct: The lenses were then homogenized in cold distilled water; from tissue; host or cells: lens of Sprague-Dawley rats, supernatant of homogenate (10,000 rpm, 10 min)
Type: biochemical, rat (Sprague-Dawley)
Method: Aldose reductase inhibitory activity
Rat Lens Aldose Reductase:
This test was conducted according to the method described in J. Biol. Chem., 240, 877 (1965).
Sprague-Dawley rats weighing 100 to 150 g were suffocated with carbon dioxide and the lenses were carefully removed. The lenses were then homogenized in cold distilled water (0.4 ml/lens) and the homogenate was centrifuged at 10,000 rpm for 10 min. The enzyme, i.e. aldose reductase was spectrophotometrically measured by following the decrease in NADPH at 340 nm with glyceraldehyde as substrate. An IC50 i.e., a concentration of the test compound at which 50% inhibition of aldose reductase is achieved was calculated from estimated dose-response curves.

| IC50 | Compound |
| --- | --- |
| 130 nM | Cc1cc(C=CC=C2SC(=S)N(CC(=O)O)C2=O)on1 [Compound 1b] |
| 4000 nM | Cc1cc(C=CC=C2SC(=S)NC2=O)on1 [Compound 1a, 5-[3-(3-methyl-5-isoxazolyl)-1,3-propanediene]rhodanine] |
| 640 nM | Cc1cc(CC2SC(=S)N(CC(=O)O)C2=O)on1 (stereo not drawn) [Compound 1g, 5-(3-methyl-5-isoxazolylmethyl)rhodanine-3-acetic acid] |
